In article PMC6332334, “3-H-[1,2]Dithiole as a New Anti-Trypanosoma cruzi Chemotype: Biological and Mechanism of Action Studies” (Molecules, 2015):
Marks after values point to notes of the source that are not given here.

Experiments:
[1] = tested on: epimastigotes of T. cruzi (Tulahuen 2 strain); experiment: Anti-T. cruzi test in vitro (epimastigote growth inhibition); assay type: cell-based, Trypanosoma cruzi
Experimental: To evaluate the anti-trypanosomal activity of the synthesized 3H-[1,2]dithioles we used T. cruzi, Tulahuen 2 strain (discrete typing unit, DTU, TcVI [18]) in the epimastigote form. […] To establish the selectivity of the compounds against the parasite, unspecific cytotoxicity against mammalian cells (J774.1 murine macrophages) was studied for the most relevant derivatives. The selectivity indexes (SI) were also determined (Table 1).
We used epimastigotes of the Tulahuen 2 strain (DTU, Tc VI) growing in an axenic milieu (BHI-Tryptose). Cells from a 5–7-day-old culture were inoculated in fresh culture milieu to give an initial concentration of 1 × 10^6 cells/mL. The absorbance at 600 nm of the cells in culture was measured every day. At day 5, the milieu was inoculated with different quantities of the compounds from a stock solution in DMSO (DMSO concentration in the culture milieu never exceeded 0.4%). The control was made in the presence of 0.4% DMSO and in the absence of compounds. […] At day 5, the absorbance of the culture was measured and related to the control. The IC50 value was taken as the concentration of drug needed to reduce the absorbance ratio to 50%.

[2] = molecular target: T1, Trypanosoma cruzi triosephosphate isomerase (TcTIM) (Trypanosoma cruzi, UniProt P52270); experiment: Inhibition of enzymatic activity of TcTIM; assay type: biochemical
T1 construct: made in house; host or cells: Escherichia coli
Experimental: In order to investigate if the 3H-[1,2]dithioles inhibit TcTIM, we initially tested the inhibitory capacity of the compounds at a concentration of 200 μM and then at 25 μM.
Expression and purification of protein: TcTIM was expressed in Escherichia coli and purified as described in the literature. After purification, the enzyme, dissolved in 100 mM triethanolamine, 10 mM EDTA and 1 mM dithiothreitol (pH 8), was precipitated with ammonium sulfate (75% saturation) and stored at 4 °C. Before use, extensive dialysis against 100 mM triethanolamine/10 mM EDTA (pH 7.4) was performed. Protein concentration was determined by absorbance at 280 nm (ε = 36,440 M^−1·cm^−1).
Enzymatic activity assays. Enzymatic activity was determined following the conversion of glyceraldehyde 3-phosphate into dihydroxyacetone phosphate. The decrease in absorbance at 340 nm was followed in a multicell Cary spectrophotometer at 25 °C. The reaction mixture (1 mL, pH 7.4) contained 100 mM triethanolamine, 10 mM EDTA, 0.2 mM NADH, 1 mM glyceraldehyde 3-phosphate, and 0.9 units of α-glycerol phosphate dehydrogenase. The reaction was initiated by addition of 5 ng/mL of the TcTIM.
For inactivation studies, TcTIM was incubated at a concentration of 5 mg/mL in a buffer containing 100 mM triethanolamine, 10 mM EDTA, pH 7.4 and 10% of DMSO at 36 °C. The mixture also contained the compounds at the indicated concentrations. Compounds were dissolved in DMSO. After 2 h, […] was withdrawn and added to 1 mL of reaction mixture for the activity assay. None of the molecules tested here affected the activity of α-glycerol phosphate dehydrogenase, the enzyme used for trapping the product.
The IC50 value was taken as the concentration of drug needed to reduce the enzymatic activity to 50%. The experiments were performed in triplicate.

[3] = tested on: T. cruzi cells (Y strain, DTU Tc II); experiment: 1H-NMR study of the excreted metabolites; assay type: cell-based, Trypanosoma cruzi
Experimental: To gain insight into the changes promoted by the active 3-propylidene[1,2]dithioles 2 and 14 in some biochemical pathways, the metabolites excreted by the parasite using ^1H-NMR spectroscopy were analyzed. Changes in the excreted metabolites by T. cruzi Y strain (DTU Tc II, [24]), when the parasite cells were exposed to a bioactive compound, could be indicative of the modification of the biochemical pathway(s) by the agents. Spectra of the cell-free milieu of treated parasites were compared with those of the untreated T. cruzi-free milieu as the control. We focused mainly on the changes of excreted salts of the carboxylic acids, lactate (Lac), acetate (Ace), pyruvate (Pyr), and succinate (Succ) and the amino acids, alanine (Ala) and glycine (Gly), among the most relevant modified metabolites.
For the ^1H-NMR spectroscopic studies, T. cruzi cells (Y strain, DTU Tc II) treated for 2 days, with each studied compound at concentrations corresponding to 2 × IC50 values (5 mL) were centrifuged at 1500× g for 10 min at 4 °C. The pellet was discarded, and the parasite-free supernatant was stored at −20 °C until use. Before measuring, DMF (0.1 mL, 10 mM) as the internal standard and D2O (0.1 mL) were added to the supernatant (0.3 mL). ^1H-NMR experiments were recorded at 20 °C on a Bruker Advance DPX-400 spectrometer (Bruker), operating at 400.132 MHz, with a 5 mm broadband inverse geometry probe. The acquisition parameters included: 90° pulse (zgpr, advance-version v 1.7.10.2, 1D sequence with f1 presaturation), 128 scans, and spectral width of 14.983 ppm. The acquisition time was 1.3664 s. Signal intensities were calculated by performing appropriate baseline corrections and then integrating the area under each of the resonances using MestRe-C NMR software. Spectra were analyzed using the Topspin 1.3 software package. The spectra were registered with water suppression in 5 mm NMR (Aldrich, St. Louis, MO, USA) sample tubes. The chemical displacements used to identify the respective metabolites were previously confirmed by adding each analyzed metabolite to the studied supernatant, as well as by the study of a control solution with 4 μg/mL of each metabolite in buffer (phosphate, pH = 7.4). Each run was done at least in triplicate and the Student t test was used to analyze the significance of the changes. […]

cruzipain = molecular target: T2, cruzipain (Trypanosoma cruzi, UniProt P25779); experiment: Inhibition of T. cruzi cruzipain (Z-Phe-Arg-AMC fluorogenic substrate); assay type: biochemical; settings: isolated enzyme
T2 construct: endogenous in cells; host or cells: T. cruzi epimastigotes, Tulahuen 2 strain

[4] = IC50 × 2, 2 days, DMF internal standard

T1 sequence (P52270 whole entry): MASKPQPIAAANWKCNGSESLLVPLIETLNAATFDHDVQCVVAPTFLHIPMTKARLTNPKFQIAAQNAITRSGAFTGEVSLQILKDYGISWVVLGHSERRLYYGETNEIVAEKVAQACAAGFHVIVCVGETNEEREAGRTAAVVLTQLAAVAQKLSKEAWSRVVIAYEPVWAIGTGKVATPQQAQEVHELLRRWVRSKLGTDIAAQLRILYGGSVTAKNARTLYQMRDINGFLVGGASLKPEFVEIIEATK
T2 sequence (P25779 123-467): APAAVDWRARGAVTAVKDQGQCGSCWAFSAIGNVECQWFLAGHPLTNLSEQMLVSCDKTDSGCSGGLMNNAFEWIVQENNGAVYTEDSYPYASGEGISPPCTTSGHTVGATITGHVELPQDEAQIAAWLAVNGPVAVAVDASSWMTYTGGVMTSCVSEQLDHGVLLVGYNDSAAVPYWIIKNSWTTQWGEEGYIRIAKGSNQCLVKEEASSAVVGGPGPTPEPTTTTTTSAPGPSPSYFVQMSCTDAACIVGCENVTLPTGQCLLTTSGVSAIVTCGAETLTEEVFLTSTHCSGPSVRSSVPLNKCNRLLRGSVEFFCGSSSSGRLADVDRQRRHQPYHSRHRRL

CC(=O)COc1ccc(C2=C/C(=C(\SCC(C)=O)C(C)=O)SS2)cc1 [Derivative 2]
IC50 ([1]; Trypanosoma cruzi, epimastigotes, Tulahuen 2 strain, triplicate, read-out: IC50 against T. cruzi): 7.7 ± 1.4 µM | SI (selectivity index) ([1]; macrophages (J774.1) vs T. cruzi epimastigotes): 3.1 | inhibition at 25 µM ([2]; percentage of enzymatic inhibition at 25 μM, read-out: TcTIM % Inhib25): 48 ± 4% | inhibition at 200 µM ([2]; percentage of enzymatic inhibition at 200 μM, read-out: TcTIM % Inhib200): 72% | Concentration of excreted Ace [3, 4]: 23.28 ± 0.86 | Concentration of excreted Ala [3, 4]: 17.76 ± 0.61 | Concentration of excreted Gly [3, 4]: 2.11 ± 0.11 ^c | Concentration of excreted Lac [3, 4]: 8.73 ± 0.37 | Concentration of excreted Pyr [3, 4]: 8.00 ± 0.35 | Concentration of excreted Succ [3, 4]: 5.83 ± 0.24 | Change of excreted metabolites compared to the control ([3]; IC50 × 2, p < 0.05 Student's t-test): significantly decreased the levels of excreted Gly and Pyr | IC50 (cruzipain): 15.5 ± 2.7 µM
